Measured values published in patent US11974572B2, “Fungicidal compositions” (SYNGENTA PARTICIPATIONS AG, priority 2017, dated 2024).

What was measured:
Phakopsora pachyrhizi = assay: Example A3: Phakopsora pachyrhizi / soybean / leaf disc preventative (Asian soybean rust); type: in vivo; conditions: foliar, 200 ppm in the applied formulation, soybean leaf disks, compared to untreated control leaf disks, read-out: disease control
Procedure: (§1) Leaf disks or leaf segments of various plant species are cut from plants grown in a greenhouse. The cut leaf disks or segments are placed in multiwell plates (24-well format) onto water agar. The leaf disks are sprayed with a test solution before (preventative) or after (curative) inoculation. Compounds to be tested are prepared as DMSO solutions (max. 10 mg/ml) which are diluted to the appropriate concentration with 0.025% Tween20 just before spraying. The inoculated leaf disks or segments are incubated under defined conditions (temperature, relative humidity, light, etc.) according to the respective test system. A single evaluation of disease level is carried out 3 to 14 days after inoculation, depending on the pathosystem. Percent disease control relative to the untreated check leaf disks or segments is then calculated.
Soybean leaf disks are placed on water agar in multiwell plates (24-well format) and sprayed with the formulated test compound diluted in water. One day after application leaf discs are inoculated by spraying a spore suspension on the lower leaf surface. […] The activity of a compound is assessed as percent disease control compared to untreated when an appropriate level of disease damage appears in untreated check leaf disks (12 to 14 days after application). […]

[1] = test system: Puccinia recondita f. sp. tritici; assay: Example A1: Puccinia recondita f. sp. tritici / wheat / leaf disc preventative (brown rust); type: in vivo; conditions: foliar, 200 ppm in the applied formulation, wheat leaf segments, compared to untreated control leaf disks, read-out: disease control
Procedure: as §1
Wheat leaf segments cv. Kanzler were placed on agar in multiwell plates (24-well format) and sprayed with the formulated test compound diluted in water. […] The inoculated leaf segments were incubated at 19° C. and 75% relative humidity (rh) under a light regime of 12 hours light/12 hours darkness in a climate cabinet and the activity of a compound was assessed as percent disease control compared to untreated when an appropriate level of disease damage appears in untreated check leaf segments (7 to 9 days after application). […]

[2] = test system: Puccinia recondita f. sp. tritici; assay: Example A2: Puccinia recondita f. sp. tritici / wheat / leaf disc curative (brown rust); type: in vivo; conditions: foliar, 200 ppm in the applied formulation, wheat leaf segments, compared to untreated control leaf disks, read-out: disease control
Procedure: as §1
Wheat leaf segments cv. Kanzler are placed on agar in multiwell plates (24-well format). The leaf segments are then inoculated with a spore suspension of the fungus. […] The leaf segments were incubated at 19° C. and 75% relative humidity under a light regime of 12 hours light/12 hours darkness in a climate cabinet and the activity of a compound was assessed as percent disease control compared to untreated when an appropriate level of disease damage appears in untreated check leaf segments (6 to 8 days after application). […]

[3] = test system: Glomerella lagenarium (Colletotrichum lagenarium); assay: Example A4: Glomerella lagenarium (Colletotrichum lagenarium) liquid culture / cucumber / preventative (anthracnose); type: cell-based; conditions: Colletotrichum orbiculare, 20 ppm in the applied formulation, compared to untreated control, read-out: disease control
Procedure: Mycelia fragments or conidia suspensions of a fungus prepared either freshly from liquid cultures of the fungus or from cryogenic storage, are directly mixed into nutrient broth. DMSO solutions of the test compound (max. 10 mg/ml) are diluted with 0.025% Tween20 by a factor of 50 and 10 μl of this solution is pipetted into a microtiter plate (96-well format). The nutrient broth containing the fungal spores/mycelia fragments is then added to give an end concentration of the tested compound. The test plates are incubated in the dark at 24° C. and 96% relative humidity. The inhibition of fungal growth is determined photometrically after 2 to 7 days, depending on the pathosystem, and percent antifungal activity relative to the untreated check is calculated.
Conidia of the fungus from cryogenic storage are directly mixed into nutrient broth (PDB—potato dextrose broth). After placing a (DMSO) solution of test compound into a microtiter plate (96-well format), the nutrient broth containing the fungal spores is added.
The following compounds at 20 ppm in the applied formulation give at least 80% disease control in this test when compared to untreated control under the same conditions, which show extensive disease development.

| SMILES | melting point [°C] | pest or weed control at 200 ppm (Phakopsora pachyrhizi) [%] | pest or weed control at 200 ppm [1] [%] | pest or weed control at 200 ppm [2] [%] | inhibition of growth at 20 ppm [3] [%] |
| --- | --- | --- | --- | --- | --- |
| CON(Cc1ccc(-c2noc(C(F)(F)F)n2)cc1)C(=O)NC1CC1 [X.15, 3-cyclopropyl-1-methoxy-1-[[4-[5-(trifluoromethyl)-1,2,4-oxadiazol-3-yl]phenyl]methyl]urea] | 84 to 87 |  |  |  |  |
| CON(Cc1ccc(-c2noc(C(F)(F)F)n2)cc1)C(=O)NC(C)C [X.19, 3-isopropyl-1-methoxy-1-[[4-[5-(trifluoromethyl)-1,2,4-oxadiazol-3-yl]phenyl]methyl]urea] | 106 to 107.3 |  |  |  |  |
| C#CCNC(=O)N(Cc1ccc(-c2noc(C(F)(F)F)n2)cc1)OC [X.20, 1-methoxy-3-prop-2-ynyl-1-[[4-[5-(trifluoromethyl)-1,2,4-oxadiazol-3-yl]phenyl]methyl]urea] | 88.9 to 90.6 |  |  |  |  |
| CCN(Cc1ccc(-c2noc(C(F)(F)F)n2)cc1)C(=O)NCC(F)(F)F [X.23, 1-ethyl-3-(2,2,2-trifluoroethyl)-1-[[4-[5-(trifluoromethyl)-1,2,4-oxadiazol-3-yl]phenyl]methyl]urea] |  | ≥ 80 | ≥ 80 | ≥ 80 | ≥ 80 |
| CN(Cc1ccc(-c2noc(C(F)(F)F)n2)cc1)C(=O)NCC1CC1 [X.22, 3-(cyclopropylmethyl)-1-methyl-1-[[4-[5-(trifluoromethyl)-1,2,4-oxadiazol-3-yl]phenyl]methyl]urea] |  | ≥ 80 | ≥ 80 | ≥ 80 | ≥ 80 |

Second part, led by results:

| melting point [°C] | SMILES | pest or weed control at 200 ppm (Phakopsora pachyrhizi) [%] | pest or weed control at 200 ppm [1] [%] | pest or weed control at 200 ppm [2] [%] | inhibition of growth at 20 ppm [3] [%] |
| --- | --- | --- | --- | --- | --- |
| 92.6 to 94.3 | COCC(=O)N(Cc1ccc(-c2noc(C(F)(F)F)n2)cc1)CC(F)(F)F [X.09, 2-methoxy-N-(2,2,2-trifluoroethyl)-N-[[4-[5-(trifluoromethyl)-1,2,4-oxadiazol-3-yl]phenyl]methyl]acetamide] |  |  |  |  |
| 64 to 70 | C=CCNC(=O)N(Cc1ccc(-c2noc(C(F)(F)F)n2)cc1)OC [X.17, 3-allyl-1-methoxy-1-[[4-[5-(trifluoromethyl)-1,2,4-oxadiazol-3-yl]phenyl]methyl]urea] |  |  |  |  |
| 107 to 110 | CCONC(=O)N(Cc1ccc(-c2noc(C(F)(F)F)n2)cc1)OC [X.16, 3-ethoxy-1-methoxy-1-[[4-[5-(trifluoromethyl)-1,2,4-oxadiazol-3-yl]phenyl]methyl]urea] |  |  |  |  |
